pIC50: −log10 of the molar value. Where a name gives a salt, the structure may show the parent alone. Where a SMILES comes first, the peptide text is derived from it. The star is where a group is joined. Cbz = O=C(OCc1ccccc1)*
Molecular target: T1, Mtb proteasome (Mycobacterium tuberculosis, UniProt P9WHT9)
T1 construct: Proteasome activity of the supernatants was assessed; endogenous in cells; host or cells: Mycobacterium tuberculosis H37Ra (crude lysate supernatant)
Assay: biochemical
Conditions: for inhibition at 200 µM: 0.5 h

[1] = read-out: IA: inhibitory activity of Mtb proteasome

T1 sequence (P9WHT9 58-291): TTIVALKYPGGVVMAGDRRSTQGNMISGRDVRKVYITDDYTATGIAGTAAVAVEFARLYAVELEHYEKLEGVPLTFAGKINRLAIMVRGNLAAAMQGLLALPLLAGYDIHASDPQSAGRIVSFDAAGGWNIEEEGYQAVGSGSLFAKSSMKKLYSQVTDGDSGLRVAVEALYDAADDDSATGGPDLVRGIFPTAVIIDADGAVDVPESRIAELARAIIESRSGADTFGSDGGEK
T1 sequence (P9WHU1 whole entry partner): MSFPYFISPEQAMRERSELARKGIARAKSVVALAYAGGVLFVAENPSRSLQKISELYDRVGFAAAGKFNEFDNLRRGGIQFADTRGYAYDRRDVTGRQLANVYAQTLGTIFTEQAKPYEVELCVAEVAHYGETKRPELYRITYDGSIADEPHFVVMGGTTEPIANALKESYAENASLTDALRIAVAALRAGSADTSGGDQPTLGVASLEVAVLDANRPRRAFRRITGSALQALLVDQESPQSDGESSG

Molecule | inhibition at 200 µM [1] [%] | also measured
Nc1ncnc2c1ncn2[C@@H]1O[C@H](CO)C[C@H]1O [cordycepin] | 7.77 | –
COC(=O)c1c2c(c3ccccc3c1O)OC(C)(C)C=C2 [rubimaillin] | – | IA: inhibitory activity of Mtb proteasome: 46.37%
O=c1c(-c2ccc(O)cc2)coc2cc(O)cc(O)c12 [genistein] | 45.7 | –
C=C1C(=O)O[C@@H]2C[C@@]3(C)CCC[C@H](C)C3=C[C@H]12 [alantolactone] | – | IA: inhibitory activity of Mtb proteasome: 32.12%
O=C(O[C@@H]1Cc2c(O)cc(O)cc2O[C@@H]1c1cc(O)c(O)c(O)c1)c1cc(O)c(O)c(O)c1 [epigallocatechin gallate] | – | IA: inhibitory activity of Mtb proteasome: 45.21%
COc1cc(C)c(C(=O)Oc2cc(C)c(C(=O)O)c(O)c2C)c(OC)c1C [diffractic acid] | – | IA: inhibitory activity of Mtb proteasome: 0.00%
CC(C)C[C@@H](C=O)NC(=O)[C@H](CC(C)C)NC(=O)[C@H](CC(C)C)NC(=O)OCc1ccccc1 [MG132, reference compound] (Cbz-Leu-Leu-Leu-aldehyde) | – | pIC50: 4.55; inhibition at 100 µM [1]: 79.7%
O=C(/C=C/c1ccc(O)cc1)c1ccc(O)cc1O [isoliquiritigenin] | > 65 | pIC50: 4.19
COc1cc(C(=O)O)cc(OC)c1O [syringic acid] | 0 | –
CC[C@@]1(O)C(=O)OCc2c1cc1n(c2=O)Cc2cc3ccccc3nc2-1 [camptothecin] | 0 | –
COc1ccc(-c2oc3c(CC=C(C)C)c(O[C@@H]4O[C@H](CO)[C@@H](O)[C@H](O)[C@H]4O)cc(O)c3c(=O)c2O[C@@H]2O[C@@H](C)[C@H](O)[C@@H](O)[C@H]2O)cc1 [icarrin, icariin] | > 65 | pIC50: 4.05
silmyarin | – | IA: inhibitory activity of Mtb proteasome: 0.00%
O=c1cc(-c2ccccc2)oc2cc(O)c(O)c(O)c12 [baicalein] | > 65 | pIC50: 4.34
O=C(/C=C/c1ccc(O)c(O)c1)O[C@@H]1C[C@](O)(C(=O)O)C[C@@H](O)[C@H]1O [chlorogenic acid] | 0 | –
COc1ccc2cc1Oc1ccc(cc1)C[C@H]1c3cc(c(OC)cc3CCN1C)Oc1c(OC)c(OC)cc3c1[C@H](C2)N(C)CC3 [hanfangchin A] | – | IA: inhibitory activity of Mtb proteasome: 0.00%
COc1ccc2cc1Oc1ccc(cc1)C[C@H]1c3cc(c(OC)cc3CCN1C)Oc1c(O)c(OC)cc3c1[C@H](C2)N(C)CC3 [hanfangchin B] | – | IA: inhibitory activity of Mtb proteasome: 0.00%
C[C@H]1CC[C@@H]2N(C1)C[C@H]1[C@@H]3C[C@H]4[C@@H](C[C@H](O)[C@H]5C[C@@H](O)CC[C@@]54C)[C@@H]3CC[C@@H]1[C@]2(C)O [peimine] | – | IA: inhibitory activity of Mtb proteasome: 3.05%
COc1c(O)cc2oc3cc(O)c(CC=C(C)C)c(O)c3c(=O)c2c1CC=C(C)C [alpha mangostin] | – | IA: inhibitory activity of Mtb proteasome: 64.16%
O=C1C[C@@H]2OCC=C3CN4CC[C@]56c7ccccc7N1[C@H]5[C@H]2[C@H]3C[C@H]46 [strychnine] | 0 | –
COc1ccc2cc3[n+](cc2c1OC)CCc1cc2c(cc1-3)OCO2 [berberine] | 0 | –
O[C@H]1[C@H]2c3cc4c(cc3CN3CCC(=C[C@@H]1O)[C@H]23)OCO4 [lycorine hydrochloride] | 0 | –
Oc1ccc(/C=C/c2cc(O)cc(O)c2)cc1 [resveratrol] | 0 | –
C[C@@H]1O[C@@H](OC[C@H]2O[C@@H](Oc3c(-c4ccc(O)c(O)c4)oc4cc(O)cc(O)c4c3=O)[C@H](O)[C@@H](O)[C@@H]2O)[C@H](O)[C@H](O)[C@H]1O [rutin] | 0 | –

Molecule | inhibition at 200 µM [1] [%] | also measured
COc1ccc(C(C)=O)c(O)c1 [paeonol] | 0 | –
COc1cc2ccc(=O)oc2cc1OC [scoparone] | 0 | –
C[C@H]1[C@H](OC(=O)CCC(=O)O)O[C@@H]2O[C@@]3(C)CC[C@H]4[C@H](C)CC[C@@H]1[C@@]24OO3 [artesunate, reference compound] | 13.8 | –
OC[C@H]1O[C@@H](OCCc2ccc(O)cc2)[C@H](O)[C@@H](O)[C@@H]1O [salidroside] | 34 | –
COc1cc(/C=C/C(=O)CC(=O)/C=C/c2ccc(O)c(OC)c2)ccc1O [curcumin] | > 65 | –
O=c1cc(-c2ccc(O)c(O)c2)oc2cc(O)cc(O)c12 [luteolin] | 0 | –
COc1c(O)cc2c(c1O)[C@@H]1O[C@H](CO)[C@@H](O)[C@H](O)[C@H]1OC2=O [bergenin] | 3.67 | –
COc1cc(C[C@H]2C(=O)OC[C@@H]2Cc2ccc(OC)c(OC)c2)ccc1O [arctigenin] | 27.1 | –
COc1c(O[C@@H]2O[C@H](CO)[C@@H](O)[C@H](O)[C@H]2O)cc2occ(-c3ccc(O)cc3)c(=O)c2c1O [tectoridin] | 0 | –
C=C1CC[C@@H]2[C@](C)(CO)[C@H](O)CC[C@@]2(C)[C@@H]1/C=C/C1=CCOC1=O [dehydroandrographolide] | – | IA: inhibitory activity of Mtb proteasome: 32.67%
CC1(C)[C@@H](O)CC[C@]2(C)[C@H]3C(=O)C=C4[C@@H]5C[C@@](C)(C(=O)O)CC[C@]5(C)CC[C@@]4(C)[C@]3(C)CC[C@@H]12 [glycyrrhetinic Acid] | 0 | –
C/C=C(/C)C(=O)O[C@H]1[C@@H](OC(C)=O)c2c(ccc3ccc(=O)oc23)OC1(C)C [praeruptorin A] | – | IA: inhibitory activity of Mtb proteasome: 0.00%
O=c1cc(-c2ccc(O)cc2)oc2cc(O)cc(O)c12 [apigenin] | 0 | –
C=C1CC[C@H]2C(=C)CC[C@H]3C(=C)C(=O)O[C@@H]3[C@@H]12 [dehydrocostuslactone] | 32.1 | –
O=C1Nc2ccccc2/C1=C1/Nc2ccccc2C1=O [indirubin] | 46 | –
COc1c(O[C@@H]2O[C@H](C(=O)O)[C@@H](O)[C@H](O)[C@H]2O)cc(O)c2c(=O)cc(-c3ccccc3)oc12 [wogonoside] | – | IA: inhibitory activity of Mtb proteasome: 59.01%
O=C1c2cccc(O)c2C(=O)c2c(O)cc(CO)cc21 [aloe-emodin] | 34.3 | –
O=C(O)C1=C[C@@H](O)[C@@H](O)[C@H](O)C1 [shikimicacid] | 0 | –
C[C@H]1CC[C@@]2(OC1)O[C@H]1C[C@H]3[C@@H]4CC[C@@H]5C[C@@H](O)CC[C@]5(C)[C@H]4CC[C@]3(C)[C@H]1[C@@H]2C [sarsasapogenin] | 0 | –
dipsacoside | – | IA: inhibitory activity of Mtb proteasome: 0.00%
CC(C)=CCOc1c2occc2cc2ccc(=O)oc12 [imperatorin] | 15.9 | –
CC1=C(O)C(=O)C=C2C1=CC=C1[C@@]2(C)CC[C@@]2(C)[C@@H]3C[C@](C)(C(=O)O)CC[C@]3(C)CC[C@]12C [tripterine] | > 65 | pIC50: 3.94
C=CCc1ccc(O)c(-c2cc(CC=C)ccc2O)c1 [magnolol] | 0 | –

Molecule | inhibition at 200 µM [1] [%] | also measured
CC1(C)O[C@H]2CC(=O)OC[C@]23[C@H]2CC[C@@]4(C)[C@H](c5ccoc5)OC(=O)[C@H]5O[C@]54[C@]2(C)C(=O)C[C@@H]13 [limonin] | 1.61 | –
CC(=O)O[C@H]1C(=O)[C@@]2(C)[C@H]([C@H](OC(=O)c3ccccc3)[C@]3(O)C[C@H](OC(=O)[C@H](O)[C@@H](NC(=O)c4ccccc4)c4ccccc4)C(C)=C1C3(C)C)[C@]1(OC(C)=O)CO[C@@H]1C[C@@H]2O [paclitaxel, reference compound] | 0 | –
CC(=O)OC(C)(C)CCC(=O)[C@](C)(O)[C@H]1[C@H](O)C[C@@]2(C)[C@@H]3CC=C4[C@@H](C[C@H](O)[C@@H](O)C4(C)C)[C@]3(C)C(=O)C[C@]12C [hemslecin A] | 0 | –
C=C1C(=O)O[C@@H]2/C=C(\C)CC/C=C(\C)CC[C@@H]12 [costunolide] | 41.8 | –
OCc1ccccc1O[C@@H]1O[C@H](CO)[C@@H](O)[C@H](O)[C@H]1O [salicin] | 0 | –
O=c1c2cc(O)c(O)cc2oc2cc(O)c([C@@H]3O[C@H](CO)[C@@H](O)[C@H](O)[C@H]3O)c(O)c12 [mangiferin] | 31.9 | –
C[C@@H]1CC[C@@]2(OC1)O[C@H]1C[C@H]3[C@@H]4CC=C5C[C@@H](O)CC[C@]5(C)[C@H]4CC[C@]3(C)[C@H]1[C@@H]2C [diosgenin] | 0 | –
O=c1ccc2ccc(O)c(O)c2o1 [daphnetin] | 0 | –
COC1=C[C@@H]2[C@@H]3Cc4ccc(OC)c(O)c4[C@]2(CCN3C)CC1=O [sinomenine] | 3.77 | –
COc1ccc2cc1Oc1ccc(cc1)C[C@H]1c3c(cc4c(c3Oc3cc5c(cc3OC)CCN(C)[C@@H]5C2)OCO4)CCN1C [cepharanthine] | 0 | –
COC(=O)C1=CO[C@@H](O[C@@H]2O[C@H](CO)[C@@H](O)[C@H](O)[C@H]2O)[C@@H]2C(CO)=CC[C@H]12 [geniposide] | 0 | –
COc1ccc(-c2cc(=O)c3c(O)c(OC)c(O)c(OC)c3o2)cc1 [nevadensin] | 48 | –
CC(C)(C)[C@]1(O)CC2OC(=O)CC23C(=O)OC2OC(=O)[C@H](O)C231 (stereo partly shown) [bilobalide] | 18.6 | –
evodine | – | IA: inhibitory activity of Mtb proteasome: 31.77%
tubeimoside A | – | IA: inhibitory activity of Mtb proteasome: 0.00%
O=c1c(-c2ccc(O)cc2)coc2c([C@@H]3O[C@H](CO)[C@@H](O)[C@H](O)[C@H]3O)c(O)ccc12 [puerarin] | 0 | –
O=c1c(O)c(-c2cc(O)c(O)c(O)c2)oc2cc(O)cc(O)c12 [myricetin] | > 65 | pIC50: 4.26
asiaticoside | – | IA: inhibitory activity of Mtb proteasome: 0.00%
COc1ccc(-c2cc(=O)c3c(O)c(OC)c(O[C@@H]4O[C@H](CO[C@@H]5O[C@@H](C)[C@H](O)[C@@H](O)[C@H]5O)[C@@H](O)[C@H](O)[C@H]4O)cc3o2)cc1 [pectolinarin] | – | pIC50: 4.30
C=C1CC[C@@H]2[C@](C)(CO)[C@H](O)CC[C@@]2(C)[C@@H]1C/C=C1/C(=O)OC[C@H]1O [andrographolide] | 0 | –
Cc1cc(O)c2c(c1)C(=O)c1cc(O)cc(O)c1C2=O [emodin] | > 65 | pIC50: 4.09
O=C(O)[C@H]1O[C@@H](Oc2cc3oc(-c4ccccc4)cc(=O)c3c(O)c2O)[C@H](O)[C@@H](O)[C@@H]1O [baicalin] | > 65 | pIC50: 4.08

From paper PMC4203866, “Identification of plant-derived natural products as potential inhibitors of the Mycobacterium tuberculosis proteasome” (BMC Complementary and Alternative Medicine, 2014)
